In the test the test system is diploid maize plant. The experiment in a line: Multibud induction, embryo axis method (Example 8). Type of test: in vivo. The procedure:
Seeds of a diploid maize plant were surface sterilized comprising immersion using standard methods of the art and then germinated in vitro in growth media. One of the resulting seedlings was dissected from its seed two days after germination (embryo axis method). The dissected axis was then subjected to a multibud induction treatment comprising transfer to fresh multibud induction media containing cytokinin in the form of 10 mg/L BAP. After seven days in the multibud bud induction media, the treated seedlings were transferred back to a hormone-free regeneration media. […] These multibuds were dissected from the mother plant and transferred to rooting media comprising IBA and IAA. After approximately one week, the multibud-derived plants were transplanted into 10 inch pots and allowed to grow in a greenhouse until it was clear that each autonomously-growing multibud-derived shoot had formed ears and tassels that nicked. Each ear was then pollinated from the tassel growing in the same pot and then all plants were allowed to grow in greenhouse conditions until seed set.

As for `c1ccc(CNc2ncnc3nc[nH]c23)cc1` [BAP, 6-Benzylaminopurine], the multibud formation result (10 mg/L BAP for seven days, observed after approximately twenty days) is on record as “induced multibuds could be seen growing from the nodal regions of the stem”. Besides, under “10 mg/L BAP multibud induction, self-pollinated multibud-derived plants”, the “seed borne by ears of multibud-derived plants” value is given as “dozens of seed each”.

(Values after US12108719B2, “Methods for creating doubled haploid plants” (Monsanto Technology LLC, priority 2015, dated 2024).)
